Laboratory results reported in patent publication US5053336A, “Monoclonal antibodies for the separate detection of halodeoxyuridines and method for their use” (Regents of the University of California, priority 1989, dated 1991).

Tested on: monoclonal antibody Br-3 (IgG1, kappa; hybridoma ATCC deposit)
Assay: competition ELISA (c-ELISA), specificity of antibody for halogenated deoxyuridines
Type: binding, mouse (SJL/Jax)
Source text: A competition enzyme-linked immunosorbent assay (c-ELISA) wa developed to assess the specificity of the antibody for halogenated deoxyuridines by the method of Stanker, et al. (1986) described previously. The competition ELISA data was normalized using 100% activity as the optical density in wells in which antibody was bound to the solid phase antigen (BSA-hapten) in the absence of any competitor. The test wells, each containing different amounts of competitor, were normalized to the 100% activity wells. Percent inhibition was calculated by subtracting the normalized percent binding activity from 100. A smaller I50 value indicates a higher relative affinity of the antibody for the compound. I50 values were estimated graphically from competition ELISA data. When 50% inhibition could not be attained, the value of the highest level of competitor tested is reported. Competition binding data for antibodies reactive with brominated nucleoside analogs are shown in FIG. 1, and the values represent the averages from at least 12 independent assays.
The concentration of IdUMP which causes a 50% binding inhibition to monoclonal antibody Br-3 is 100 times greater for IdUMP than with BrdUMP.

With Cc1cn([C@H]2C[C@H](O)[C@@H](COP(=O)(O)O)O2)c(=O)[nH]c1=O [dTMP, deoxythymidine-5-monophosphate] the IC50 (50% inhibition not attained at the highest level of competitor tested, read-out: concentration for 50% binding inhibition (I50)) was greater than 100 µM.
For O=c1[nH]c(=O)n([C@H]2C[C@H](O)[C@@H](COP(=O)(O)O)O2)cc1F [fluorinated deoxyuridine analog, 5-fluoro-2'-deoxyuridine-5-monophosphate], the “Br-3 binding (competition ELISA)” value (compared with the iodinated analog, FIG. 1) was “comparable to that of the iodinated analog”.
With O=c1[nH]c(=O)n([C@H]2C[C@H](O)[C@@H](COP(=O)(O)O)O2)cc1I [IdUMP, 5-iodo-2'-deoxyuridine-5-monophosphate] the “concentration which causes a 50% binding inhibition (I50), relative to BrdUMP” value (I50 of IdUMP compared with I50 of BrdUMP, FIG. 1, averages of at least 12 assays) was 100 times.
